Laboratory results published in patent publication US12331041B2, “GLP-1 receptor agonists and uses thereof” (Pfizer Inc., priority 2018, dated 2025).
Structures can show the parent of a compound that is named as a salt.

How the values were obtained:
human GLP-1R [1] = molecular target: T1, human GLP-1R (Homo sapiens, UniProt P43220, L260F); experiment: CHO GLP-1R Clone C6 - Assay 2 (HTRF cAMP agonist assay); assay type: cell-based; settings: for EC50: CHO clone C6, low GLP-1R density, cAMP, geometric mean; for Emax: CHO clone C6, relative to saturating full agonist GLP-1 (1 μM), arithmetic mean
T1 construct: expressed in transfected cells; host or cells: CHO Flp-In T-REx, clonal line C6 (pcDNA5-FRT-TO)

human GLP-1R [2] = molecular target: T2, human GLP-1R (Homo sapiens, UniProt P43220, G168S); experiment: CHO GLP-1R Clone H6 - Assay 1 (HTRF cAMP agonist assay); assay type: cell-based; settings: for EC50: CHO Clone H6, high GLP-1R density, cAMP, geometric mean; for Emax: CHO Clone H6, relative to saturating full agonist GLP-1 7-36 (1 μM), arithmetic mean
T2 construct: expressed in transfected cells
In short: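 CHO Clone H6 cells stably expressing human GLP-1R (G168S) were plated 48 h, then given compound for 30 min at 37° C in HBSS/0.1% BSA/HEPES with 100 μM IBMX and 1% DMSO. cAMP was measured by HTRF against a standard curve.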

T1 sequence (P43220 24-463 L260F): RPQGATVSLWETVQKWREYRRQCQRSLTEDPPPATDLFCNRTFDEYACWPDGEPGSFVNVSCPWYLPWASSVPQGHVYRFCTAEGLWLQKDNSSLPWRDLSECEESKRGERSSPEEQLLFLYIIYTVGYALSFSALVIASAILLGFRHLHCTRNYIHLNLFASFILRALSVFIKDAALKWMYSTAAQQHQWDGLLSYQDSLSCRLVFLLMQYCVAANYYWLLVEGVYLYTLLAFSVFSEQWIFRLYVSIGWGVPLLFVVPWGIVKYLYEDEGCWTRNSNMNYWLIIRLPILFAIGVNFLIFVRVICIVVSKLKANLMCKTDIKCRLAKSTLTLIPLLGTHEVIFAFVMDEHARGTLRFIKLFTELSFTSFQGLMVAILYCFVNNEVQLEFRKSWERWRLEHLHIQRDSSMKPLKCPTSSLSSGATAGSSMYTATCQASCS
T2 sequence (P43220 24-463 G168S): as the sequence (P43220 24-463 L260F) above, with G145S, F237L counted along it

SMILES	EC50 (human GLP-1R [1])	Emax (human GLP-1R [1])	EC50 (human GLP-1R [2])	Emax (human GLP-1R [2])
O=C(O)c1ccc2nc(C3CC34CCN(c3nc(OCc5ccc(Cl)cc5F)ncc3F)CC4)n(Cc3cocn3)c2c1 (stereo not drawn) [Example 43, 2-(6-{2-[(4-chloro-2-fluorobenzyl)oxy]-5-fluoropyrimidin-4-yl}-6-azaspiro[2.5]oct-1-yl)-1-(1,3-oxazol-4-ylmethyl)-1H-benzimidazole-6-carboxylic acid, trifluoroacetate salt, from P7]	250 nM	70%	13 nM	75%
O=C(O)c1ccc2nc(CN3CCC(c4nccnc4OCc4ccc(Cl)cc4F)CC3)n(Cc3ncco3)c2c1 [Example 22, 2-[(4-{3-[(4-chloro-2-fluorobenzyl)oxy]pyrazin-2-yl}piperidin-1-yl)methyl]-1-(1,3-oxazol-2-ylmethyl)-1H-benzimidazole-6-carboxylic acid, trifluoroacetate salt]	23 nM	82%	2.8 nM	85%
COCCn1c(CN2CCN(c3ccnc(OCc4ccc(Cl)cc4F)n3)[C@H](C)C2)nc2ccc(C(=O)O)cc21 [Example 74, 2-{[(3R)-4-{2-[(4-chloro-2-fluorobenzyl)oxy]pyrimidin-4-yl}-3-methylpiperazin-1-yl]methyl}-1-(2-methoxyethyl)-1H-benzimidazole-6-carboxylic acid, trifluoroacetate salt]	11000 nM	96%	500 nM	86%
